Measured values reported in ChEMBL document CHEMBL1150783, “In vitro activities of CG400549, a novel FabI inhibitor, against recently isolated clinical staphylococcal strains in Korea” (2007).
Values after ≈ are worked out from the molar mass of the structure shown.

What was measured:
Type in all cases: functional
Staphylococcus aureus [1] = experiment: Antibacterial activity against methicillin-susceptible Staphylococcus aureus isolate assessed as […] isolates by CLSI dilution method
Staphylococcus sp. [2] = experiment: (§1) Antibacterial activity against methicillin-susceptible coagulase-negative Staphylococcus sp. assessed as percent susceptible isolates by CLSI dilution method
Staphylococcus sp. [3] = experiment: as §1; remark: listed apart in the source
Staphylococcus aureus [4] = experiment: Antibacterial activity against methicillin-resistant Staphylococcus aureus isolate assessed as percent susceptible isolates by CLSI dilution method
Staphylococcus aureus [5] = experiment: Antibacterial activity against methicillin-resistant Staphylococcus aureus by CLSI dilution method
Staphylococcus aureus [6] = experiment: Antibacterial activity against methicillin-susceptible Staphylococcus aureus isolate by CLSI dilution method
Staphylococcus sp. [7] = experiment: Antibacterial activity against methicillin-resistant coagulase-negative Staphylococcus sp. by CLSI dilution method
Staphylococcus sp. [8] = experiment: Antibacterial activity against methicillin-susceptible coagulase-negative Staphylococcus sp. by CLSI dilution method
Staphylococcus aureus [9] = experiment: (§2) Antibacterial activity against methicillin-resistant Staphylococcus aureus isolate assessed as percent resistant isolates by CLSI dilution method
Staphylococcus aureus [10] = experiment: as §2; remark: listed apart in the source
Staphylococcus sp. [11] = experiment: Antibacterial activity against methicillin-resistant coagulase-negative Staphylococcus sp. assessed as percent resistant isolates by CLSI dilution method
Staphylococcus sp. [12] = experiment: Antibacterial activity against methicillin-susceptible coagulase-negative Staphylococcus sp. assessed as percent resistant isolates by CLSI dilution method

Compound	Activity (Staphylococcus aureus [1]) [%]	Activity (Staphylococcus sp. [2]) [%]	Activity (Staphylococcus sp. [3]) [%]	Activity (Staphylococcus aureus [4]) [%]	MIC50 (Staphylococcus aureus [5]) [µg/mL]	MIC90 (Staphylococcus aureus [5]) [µg/mL]	MIC50 (Staphylococcus aureus [6]) [µg/mL]	MIC90 (Staphylococcus aureus [6]) [µg/mL]	MIC50 (Staphylococcus sp. [7]) [µg/mL]	MIC90 (Staphylococcus sp. [7]) [µg/mL]	MIC50 (Staphylococcus sp. [8]) [µg/mL]	MIC90 (Staphylococcus sp. [8]) [µg/mL]	Activity (Staphylococcus aureus [9]) [%]	Activity (Staphylococcus aureus [10]) [%]	Activity (Staphylococcus sp. [11]) [%]	Activity (Staphylococcus sp. [12]) [%]
CC(=O)NC[C@H]1CN(c2ccc(N3CCOCC3)c(F)c2)C(=O)O1 [LINEZOLID]	100	100	100	100	2 (≈ 5.93 µM)	2 (≈ 5.93 µM)	4 (≈ 11.9 µM)	4 (≈ 11.9 µM)	1 (≈ 2.96 µM)	2 (≈ 5.93 µM)	1 (≈ 2.96 µM)	2 (≈ 5.93 µM)	–	–	–	–
CC[C@H]1OC(=O)[C@H](C)[C@@H](O[C@H]2C[C@@](C)(OC)[C@@H](O)[C@H](C)O2)[C@H](C)[C@@H](O[C@@H]2O[C@H](C)C[C@H](N(C)C)[C@H]2O)[C@](C)(O)C[C@@H](C)C(=O)[C@H](C)[C@@H](O)[C@]1(C)O [ERYTHROMYCIN]	88	20	78	5	> 128	–	0.5 (≈ 0.681 µM)	> 128	128 (≈ 174 µM)	> 128	0.25 (≈ 0.341 µM)	128 (≈ 174 µM)	95	12	80	17
CCC[C@@H]1C[C@@H](C(=O)N[C@@H]([C@H]2O[C@H](SC)[C@H](O)[C@@H](O)[C@H]2O)[C@H](C)Cl)N(C)C1 [CLINDAMYCIN]	100	44	97	12	> 128	> 128	0.12 (≈ 0.282 µM)	0.12 (≈ 0.282 µM)	> 128	> 128	0.12 (≈ 0.282 µM)	0.25 (≈ 0.588 µM)	88	0	54	3
Cc1onc(-c2ccccc2)c1C(=O)N[C@@H]1C(=O)N2[C@@H]1SC(C)(C)[C@@H]2C(=O)O [OXACILLIN]	100	0	100	0	> 128	> 128	0.5 (≈ 1.25 µM)	0.5 (≈ 1.25 µM)	32 (≈ 79.7 µM)	> 128	0.12 (≈ 0.299 µM)	0.25 (≈ 0.623 µM)	100	0	100	0
